# Reference: patent US20220227789A1, “NOVEL INDOLIZINE-2-CARBOXAMIDES ACTIVE AGAINST THE HEPATITIS B VIRUS (HBV)” (AiCuris GmbH & Co. KG, priority 2019, published 2022)
# Target: T1, HBV core protein (C-terminal truncated, 149 aa assembly domain) (Hepatitis B virus genotype D subtype adw, UniProt P03147, C107A/C48A/C61A)
# T1 construct: The C-terminal truncated core protein containing 149 amino acids of the N-terminal assembly domain; made in house; host or cells: E. coli BL21 (DE3) Rosetta2, plasmid pET21b
# Experiment: Biochemical capsid assembly assay (fluorescence quenching)
# Settings: not given
# Description: Biochemical Capsid Assembly Assay
# The screening for assembly effector activity was done based on a fluorescence quenching assay published by Zlotnick et al. (2007). The C-terminal truncated core protein containing 149 amino acids of the N-terminal assembly domain fused to a unique cysteine residue at position 150 and was expressed in E. coli using the pET expression system (Merck Chemicals, Darmstadt). Purification of core dimer protein was performed using a sequence of size exclusion chromatography steps. In brief, the cell pellet from 1 L BL21 (DE3) Rosetta2 culture expressing the coding sequence of core protein cloned NdeI/XhoI into expression plasmid pET21b was treated for 1 h on ice with a native lysis buffer (Qproteome Bacterial Protein Prep Kit; Qiagen, Hilden). After a centrifugation step the supernatant was precipitated during 2 h stirring on ice with 0.23 g/ml of solid ammonium sulfate. Following further centrifugation the resulting pellet was resolved in buffer A (100 mM Tris, pH 7.5; 100 mM NaCl; 2 mM DTT) and was subsequently loaded onto a buffer A equilibrated CaptoCore 700 column (GE HealthCare, Frankfurt). The column flow through containing the assembled HBV capsid was dialyzed against buffer N (50 mM NaHCO3 pH 9.6; 5 mM DTT) before urea was added to a final concentration of 3M to dissociate the capsid into core dimers for 1.5 h on ice. The protein solution was then loaded onto a 1 L Sephacryl 5300 column. After elution with buffer N core dimer containing fractions were identified by SDS-PAGE and subsequently pooled and dialyzed against 50 mM HEPES pH 7.5; 5 mM DTT. To improve the assembly capacity of the purified core dimers a second round of assembly and disassembly starting with the addition of 5 M NaCl and including the size exclusion chromatography steps described above was performed. From the last chromatography step core dimer containing fractions were pooled and stored in aliquots at concentrations between 1.5 to 2.0 mg/ml at −80° C.
# Immediately before labelling the core protein was reduced by adding freshly prepared DTT in a final concentration of 20 mM. After […] on ice storage buffer and DTT was removed using a Sephadex G-25 column (GE HealthCare, Frankfurt) and 50 mM HEPES, pH 7.5. For labelling 1.6 mg/ml core protein was incubated at 4° C. and darkness overnight with BODIPY-FL maleimide (Invitrogen, Karlsruhe) in a final concentration of 1 mM. After labelling the free dye was removed by an additional desalting step using a Sephadex G-25 column. Labelled core dimers were stored in aliquots at 4° C. In the dimeric state the fluorescence signal of the labelled core protein is high and is quenched during the assembly of the core dimers to high molecular capsid structures. The screening assay was performed in black 384 well microtiter plates in a total assay volume of 10 μl using 50 mM HEPES pH 7.5 and 1.0 to 2.0 μM labelled core protein. Each screening compound was added in 8 different concentrations using a 0.5 log-unit serial dilution starting at a final concentration of 100 μM, 31.6 μM or 10 μM, In any case the DMSO concentration over the entire microtiter plate was 0.5%. The assembly reaction was started by the injection of NaCl to a final concentration of […] which induces the assembly process to approximately 25% of the maximal quenched signal. 6 min after starting the reaction the fluorescence signal was measured using a Clariostar plate reader (BMG Labtech, Ortenberg) with an excitation of 477 nm and an emission of 525 nm. As 100% and 0% assembly control HEPES buffer containing 2.5 M and 0 M NaCl was used. Experiments were performed thrice in triplicates. EC50 values were calculated by non-linear regression analysis using the Graph Pad Prism 6 software (GraphPad Software, La Jolla, USA).
# T1 sequence (P03147 1-150, looked up, stated change not applied): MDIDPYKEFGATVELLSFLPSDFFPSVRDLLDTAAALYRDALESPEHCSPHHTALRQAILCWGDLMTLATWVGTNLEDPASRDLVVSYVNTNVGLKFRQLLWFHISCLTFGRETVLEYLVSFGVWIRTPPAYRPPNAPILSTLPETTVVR
row,SMILES,IC50
1,"O=C(c1cc2ccccn2c1)N1CCc2onc(-c3cscn3)c2C1 [Example 36, 2-[3-(1,3-thiazol-4-yl)-4H,5H,6H,7H-[1,2]oxazolo[4,5-c]pyridine-5-carbonyl]indolizine]",< 5 µM

# Same assay, conditions: BODIPY-FL labelled core protein, assembly started with NaCl, read after 6 min; read-out: Assembly Activity
row,SMILES,IC50
1,"O=C(c1cc2ccccn2c1)N1CCc2[nH]nc(-n3ccnn3)c2C1 [Example 28, 2-[3-(1H-1,2,3-triazol-1-yl)-1H,4H,5H,6H,7H-pyrazolo[4,3-c]pyridine-5-carbonyl]indolizine]",< 100 µM
2,"O=C(NCC1CCCO1)c1[nH]nc2c1CN(C(=O)c1cc3ccccn3c1)CC2 (stereo not shown) [Example 29, 5-(indolizine-2-carbonyl)-N-[(oxolan-2-yl)methyl]-2H,4H,5H,6H,7H-pyrazolo[4,3-c]pyridine-3-carboxamide]",< 100 µM
3,"O=C(NCC1CCCOC1)c1[nH]nc2c1CN(C(=O)c1cc3ccccn3c1)CC2 (stereo not shown) [Example 30, 5-(indolizine-2-carbonyl)-N-[(oxan-3-yl)methyl]-2H,4H,5H,6H,7H-pyrazolo[4,3-c]pyridine-3-carboxamide]",< 100 µM
4,"O=C(c1cc2ccccn2c1)N1CCc2[nH]nc(-c3ccon3)c2C1 [Example 31, 2-[3-(1,2-oxazol-3-yl)-1H,4H,5H,6H,7H-pyrazolo[4,3-c]pyridine-5-carbonyl]indolizine]",< 5 µM
5,"O=C(NC1(C(F)(F)F)CC1)c1[nH]nc2c1CN(C(=O)c1cc3ccccn3c1)CC2 [Example 33, 5-(indolizine-2-carbonyl)-N-[1-(trifluoromethyl)cyclopropyl]-2H,4H,5H,6H,7H-pyrazolo[4,3-c]pyridine-3-carboxamide]",< 100 µM
6,"O=C(c1cc2ccccn2c1)N1CCc2noc(-c3cscn3)c2C1 [Example 34, 2-[3-(1,3-thiazol-4-yl)-4H,5H,6H,7H-[1,2]oxazolo[4,3-c]pyridine-5-carbonyl]indolizine]",< 5 µM
7,"CC(C)(NC(=O)c1[nH]nc2c1CN(C(=O)c1cc3ccccn3c1)CC2)C(F)(F)F [Example 35, 5-(indolizine-2-carbonyl)-N-(1,1,1-trifluoro-2-methylpropan-2-yl)-2H,4H,5H,6H,7H-pyrazolo[4,3-c]pyridine-3-carboxamide]",< 100 µM
8,"O=C(c1cc2ccccn2c1)N1CCc2[nH]nc(-c3cscn3)c2C1 [Example 37, 2-[3-(1,3-thiazol-4-yl)-1H,4H,5H,6H,7H-pyrazolo[4,3-c]pyridine-5-carbonyl]indolizine]",< 5 µM
9,"CC(NC(=O)c1[nH]nc2c1CN(C(=O)c1cc3ccccn3c1)CC2)C1COC1 (stereo not shown) [Example 41, 5-(indolizine-2-carbonyl)-N-[1-(oxetan-3-yl)ethyl]-2H,4H,5H,6H,7H-pyrazolo[4,3-c]pyridine-3-carboxamide]",< 100 µM
10,"O=C(c1cc2ccccn2c1)N1CCn2ncc(-c3cscn3)c2C1 [Example 43, 2-[3-(1,3-thiazol-4-yl)-4H,5H,6H,7H-pyrazolo[1,5-a]pyrazine-5-carbonyl]indolizine]",< 5 µM
11,"CC1Cc2[nH]nc(-c3cscn3)c2CN1C(=O)c1cc2c(F)cc(F)cn2c1 (stereo not shown) [Example 44, 6,8-difluoro-2-[6-methyl-3-(1,3-thiazol-4-yl)-1H,4H,5H,6H,7H-pyrazolo[4,3-c]pyridine-5-carbonyl]indolizine]",< 5 µM
12,"C[C@H](NC(=O)c1[nH]nc2c1CN(C(=O)c1cc3ccccn3c1)CC2)C(F)(F)F [Example 45, 5-(indolizine-2-carbonyl)-N-[(2S)-1,1,1-trifluoropropan-2-yl]-2H,4H,5H,6H,7H-pyrazolo[4,3-c]pyridine-3-carboxamide]",< 100 µM
13,"C[C@@H](NC(=O)c1[nH]nc2c1CN(C(=O)c1cc3ccccn3c1)CC2)C(F)(F)F [Example 46, 5-(indolizine-2-carbonyl)-N-[(2R)-1,1,1-trifluoropropan-2-yl]-2H,4H,5H,6H,7H-pyrazolo[4,3-c]pyridine-3-carboxamide]",< 100 µM
14,"CC1Cc2n[nH]c(C(=O)NC(C)C(F)(F)F)c2CN1C(=O)c1cc2c(Cl)cccn2c1 (stereo not shown) [Example 47, 5-(8-chloroindolizine-2-carbonyl)-6-methyl-N-(1,1,1-trifluoropropan-2-yl)-2H,4H,5H,6H,7H-pyrazolo[4,3-c]pyridine-3-carboxamide]",< 100 µM
15,"CC1Cc2n[nH]c(C(=O)NC(C)C(F)(F)F)c2CN1C(=O)c1cc2ccccn2c1 (stereo not shown) [Example 48, 5-(indolizine-2-carbonyl)-6-methyl-N-(1,1,1-trifluoropropan-2-yl)-2H,4H,5H,6H,7H-pyrazolo[4,3-c]pyridine-3-carboxamide]",< 100 µM

# Tested on: HBV
# Experiment: HBV replication assay: HBV DNA from the supernatants of HepAD38 cells
# Type: cell-based
# Settings: Hepatitis B virus, 144 h, HBV DNA in supernatant by qPCR at day 6, read-out: Cell Activity
# Description: Determination of HBV DNA from the Supernatants of HepAD38 Cells
# The anti-HBV activity was analysed in the stable transfected cell line HepAD38, which has been described to secrete high levels of HBV virion particles (Ladner et al., 1997). In brief, HepAD38 cells were cultured at 37° C. at 5% CO2 and 95% humidity in 200 μl maintenance medium, which was Dulbecco's modified Eagle's medium/Nutrient Mixture F-12 (Gibco, Karlsruhe), 10% fetal bovine serum (PAN Biotech Aidenbach) supplemented with 50 μg/ml penicillin/streptomycin (Gibco, Karlsruhe), 2 mM L-glutamine (PAN Biotech, Aidenbach), 400 μg/ml G418 (AppliChem, Darmstadt) and 0.3 μg/ml tetracycline. Cells were subcultured once a week in a 1:5 ratio, but were usually not passaged more than ten times. For the assay 60,000 cells were seeded in maintenance medium without any tetracycline into each well of a 96-well plate and treated with serial half-log dilutions of test compound. To minimize edge effects the outer 36 wells of the plate were not used but were filled with assay medium. On each assay plate six wells for the virus control (untreated HepAD38 cells) and six wells for the cell control (HepAD38 cells treated with 0.3 μg/ml tetracycline) were allocated, respectively. In addition, one plate set with reference inhibitors like BAY 41-4109, entecavir, and lamivudine instead of screening compounds were prepared in each experiment. In general, experiments were performed thrice in triplicates. At day 6 HBV DNA from 100 μl filtrated cell culture supernatant (AcroPrep Advance 96 Filter Plate, […] Supor membran, PALL GmbH, Dreieich) was automatically purified on the MagNa Pure LC instrument using the MagNA Pure 96 DNA and Viral NA Small Volume Kit (Roche Diagnostics, Mannheim) according to the instructions of the manufacturer. EC50 values were calculated from relative copy numbers of HBV DNA In brief, 5 μl of the 100 μl eluate containing HBV DNA were subjected to PCR LC480 Probes Master Kit (Roche) together with 1 μM antisense primer […], 0.5 μM sense primer […], 0.3 μM hybprobes […]-FL and LC640-[…]-PH (TIBMolBiol, Berlin) to a final volume of […]. The PCR was performed on the Light Cycler 480 real time system (Roche Diagnostics, Mannheim) using the following protocol: Pre-incubation for 1 min at 95° C., amplification: 40 cycles×(10 sec at 95° C., 50 sec at 60° C., 1 sec at 70° C.), cooling for 10 sec at 40° C. Viral load was quantitated against known standards using HBV plasmid DNA of pCH-9/3091 (Nassal et al., 1990, Cell 63: 1357-1363) and the LightCycler 480 SW 1.5 software (Roche Diagnostics, Mannheim) and EC50 values were calculated using non-linear regression with GraphPad Prism 6 (GraphPad Software Inc., La Jolla, USA).
row,SMILES,EC50
1,"O=C(c1cc2c(Cl)cccn2c1)N1CCc2n[nH]c(C(=O)N3CC(F)(F)CC34CC4)c2C1 [Example 1, 8-chloro-2-(3-{6,6-difluoro-4-azaspiro[2.4]heptane-4-carbonyl}-2H,4H,5H,6H,7H-pyrazolo[4,3-c]pyridine-5-carbonyl)indolizine]",1 to 10 µM
2,"O=C(c1cc2c(F)cc(F)cn2c1)N1CCc2n[nH]c(C(=O)N3CC(F)(F)CC34CC4)c2C1 [Example 2, 6,8-difluoro-2-(3-{6,6-difluoro-4-azaspiro[2.4]heptane-4-carbonyl}-2H,4H,5H,6H,7H-pyrazolo[4,3-c]pyridine-5-carbonyl)indolizine]",1 to 10 µM
3,"CC1Cc2[nH]nc(-c3cscn3)c2CN1C(=O)c1cn2ccccc2c1Br (stereo not shown) [Example 11, 1-bromo-2-[6-methyl-3-(1,3-thiazol-4-yl)-1H,4H,5H,6H,7H-pyrazolo[4,3-c]pyridine-5-carbonyl]indolizine]",1 to 10 µM
